In ChEMBL document CHEMBL1140860, “Synthesis and evaluation of dihydroartemisinin and dihydroartemisitene acetal dimers showing anticancer and antiprotozoal activity” (Bioorg Med Chem, 2009):

Columns and labels:
NCI-H23 = experiment: Growth inhibition of human NCI-H23 cells after 48 hrs by sulforhodamine B assay; format: functional; details: NCI-H23, 48 h
K562 = experiment: Growth inhibition of human K562 cells after 48 hrs by sulforhodamine B assay; format: functional; details: K562, 48 h
SK-MEL-2 = experiment: Growth inhibition of human SK-MEL-2 cells after 48 hrs by sulforhodamine B assay; format: functional; details: SK-MEL-2, 48 h
MDA-MB-231 = experiment: Growth inhibition of human MDA-MB-231 cells after 48 hrs by sulforhodamine B assay; format: functional; details: MDA-MB-231, 48 h
SW-620 = experiment: Growth inhibition of human SW620 cells after 48 hrs by sulforhodamine B assay; format: functional; details: SW-620, 48 h
MOLT-4 = experiment: Growth inhibition of human MOLT4 cells after 48 hrs by sulforhodamine B assay; format: functional; details: MOLT-4, 48 h
HCT-15 = experiment: Growth inhibition of human HCT15 cells after 48 hrs by sulforhodamine B assay; format: functional; details: HCT-15, 48 h
NCI-H226 = experiment: Growth inhibition of human NCI-H226 cells after 48 hrs by sulforhodamine B assay; format: functional; details: NCI-H226, 48 h
SK-MEL-5 = experiment: Growth inhibition of human SK-MEL-5 cells after 48 hrs by sulforhodamine B assay; format: functional; details: SK-MEL-5, 48 h
SK-OV-3 = experiment: Growth inhibition of human SKOV3 cells after 48 hrs by sulforhodamine B assay; format: functional; details: SK-OV-3, 48 h
A498 = experiment: Growth inhibition of human A498 cells after 48 hrs by sulforhodamine B assay; format: functional; details: A498, 48 h
[1] = Growth inhibition of human Hs 578T cells after 48 hrs by sulforhodamine B assay; format: functional
CCRF-CEM = experiment: Growth inhibition of human CCRF-CEM cells after 48 hrs by sulforhodamine B assay; format: functional
SN12C = experiment: Growth inhibition of human SN12C cells after 48 hrs by sulforhodamine B assay; format: functional
OVCAR-3 = experiment: Growth inhibition of human OVCAR-3 cells after 48 hrs by sulforhodamine B assay; format: functional; details: OVCAR-3, 48 h
SNB-75 = experiment: Growth inhibition of human SNB75 cells after 48 hrs by sulforhodamine B assay; format: functional; details: SNB-75, 48 h
SF-295 = experiment: Growth inhibition of human SF295 cells after 48 hrs by sulforhodamine B assay; format: functional; details: SF-295, 48 h
UACC-62 = experiment: Growth inhibition of human UACC62 cells after 48 hrs by sulforhodamine B assay; format: functional; details: UACC-62, 48 h
U-251 = experiment: Growth inhibition of human U251 cells after 48 hrs by sulforhodamine B assay; format: functional; details: U-251, 48 h
KM12 = experiment: Growth inhibition of human KM12 cells after 48 hrs by sulforhodamine B assay; format: functional; details: KM12, 48 h
UO-31 = experiment: Growth inhibition of human UO31 cells after 48 hrs by sulforhodamine B assay; format: functional; details: UO-31, 48 h
TK-10 = experiment: Growth inhibition of human TK10 cells after 48 hrs by sulforhodamine B assay; format: functional; details: TK-10, 48 h
SF-268 = experiment: Growth inhibition of human SF268 cells after 48 hrs by sulforhodamine B assay; format: functional; details: SF-268, 48 h
SK-MEL-28 = experiment: Growth inhibition of human SK-MEL-28 cells after 48 hrs by sulforhodamine B assay; format: functional; details: SK-MEL-28, 48 h
[2] = Selectivity index, ratio of TC50 for african green monkey (Cercopithecus aethiops) Vero cells to IC50 for chloroquine-sensitive Plasmodium falciparum D6; format: toxicity, cell-based
MDA-N = experiment: Growth inhibition of human MDA-N cells after 48 hrs by sulforhodamine B assay; format: functional
[3] = Growth inhibition of human […] cells after 48 hrs by sulforhodamine B assay; format: functional
T47D = experiment: Growth inhibition of human T47D cells after 48 hrs by sulforhodamine B assay; format: functional
HL-60 = experiment: Growth inhibition of human HL-60(TB) cells after 48 hrs by sulforhodamine B assay; format: functional; details: HL-60, 48 h
BT-549 = experiment: Growth inhibition of human BT549 cells after 48 hrs by sulforhodamine B assay; format: functional; details: BT-549, 48 h
HOP-92 = experiment: Growth inhibition of human HOP92 cells after 48 hrs by sulforhodamine B assay; format: functional; details: HOP-92, 48 h
HCC 2998 = experiment: Growth inhibition of human HCC2998 cells after 48 hrs by sulforhodamine B assay; format: functional; details: HCC 2998, 48 h
OVCAR-8 = experiment: Growth inhibition of human OVCAR8 cells after 48 hrs by sulforhodamine B assay; format: functional; details: OVCAR-8, 48 h
MCF7 = experiment: Growth inhibition of human MCF7 cells after 48 hrs by sulforhodamine B assay; format: functional; details: MCF7, 48 h
[4] = Cytotoxicity against african green monkey Vero cells after 48 hrs by neutral red assay; format: cell-based; details: chlorocebus sabaeus, read-out: TC50
M14 = experiment: Growth inhibition of human M14 cells after 48 hrs by sulforhodamine B assay; format: functional; details: M14, 48 h
[5] = Selectivity index, ratio of TC50 for african green monkey (Cercopithecus aethiops) Vero cells to IC50 for chloroquine-resistant Plasmodium falciparum W2; format: toxicity, cell-based
UACC-257 = experiment: Growth inhibition of human UACC257 cells after 48 hrs by sulforhodamine B assay; format: functional; details: UACC-257, 48 h
Plasmodium falciparum [6] = experiment: Antimalarial activity after 72 hrs against chloroquine-sensitive Plasmodium falciparum D6 infected in erythrocytes by LDH assay; format: functional, organism-based; details: D6, 72 h
Malme-3M = experiment: Growth inhibition of human MALME-3M cells after 48 hrs by sulforhodamine B assay; format: functional
OVCAR-4 = experiment: Growth inhibition of human OVCAR4 cells after 48 hrs by sulforhodamine B assay; format: functional; details: OVCAR-4, 48 h
LOX IMVI = experiment: Growth inhibition of human LOXIMVI cells after 48 hrs by sulforhodamine B assay; format: functional
MDA-MB-435 = experiment: Growth inhibition of human MDA-MB-435 cells after 48 hrs by sulforhodamine B assay; format: functional; details: MDA-MB-435, 48 h
NCI-H322M = experiment: Growth inhibition of human NCI-H322M cells after 48 hrs by sulforhodamine B assay; format: functional
OVCAR-5 = experiment: Growth inhibition of human OVCAR5 cells after 48 hrs by sulforhodamine B assay; format: functional; details: OVCAR-5, 48 h
EKVX = experiment: Growth inhibition of human EKVX cells after 48 hrs by sulforhodamine B assay; format: functional
NCI-H522 = experiment: Growth inhibition of human NCI-H522 cells after 48 hrs by sulforhodamine B assay; format: functional; details: NCI-H522, 48 h
CAKI-1 = experiment: Growth inhibition of human Caki1 cells after 48 hrs by sulforhodamine B assay; format: functional; details: CAKI-1, 48 h
NCI-H460 = experiment: Growth inhibition of human NCI-H460 cells after 48 hrs by sulforhodamine B assay; format: functional; details: NCI-H460, 48 h
A549 = experiment: Growth inhibition of human A549 cells after 48 hrs by sulforhodamine B assay; format: functional; details: A549, 48 h
SF-539 = experiment: Growth inhibition of human SF539 cells after 48 hrs by sulforhodamine B assay; format: functional; details: SF-539, 48 h
NCI/ADR-RES = experiment: Growth inhibition of human NCI/ADR-RES cells after 48 hrs by sulforhodamine B assay; format: functional
SNB-19 = experiment: Growth inhibition of human SNB19 cells after 48 hrs by sulforhodamine B assay; format: functional; details: SNB-19, 48 h
HT-29 = experiment: Growth inhibition of human HT-29 cells after 48 hrs by sulforhodamine B assay; format: functional; details: HT-29, 48 h
COLO 205 = experiment: Growth inhibition of human COLO205 cells after 48 hrs by sulforhodamine B assay; format: functional; details: COLO 205, 48 h
ACHN = experiment: Growth inhibition of human ACHN cells after 48 hrs by sulforhodamine B assay; format: functional
Plasmodium falciparum [7] = experiment: Antimalarial activity after 72 hrs against chloroquine-resistant Plasmodium falciparum W2 infected erythrocytes by LDH assay; format: functional, organism-based; details: W2, 72 h
RXF 393 = experiment: Growth inhibition of human RXF393 cells after 48 hrs by sulforhodamine B assay; format: functional; details: RXF 393, 48 h
HOP-62 = experiment: Growth inhibition of human HOP62 cells after 48 hrs by sulforhodamine B assay; format: functional; details: HOP-62, 48 h
HCT-116 = experiment: Growth inhibition of human HCT116 cells after 48 hrs by sulforhodamine B assay; format: functional; details: HCT-116, 48 h
PC-3 = experiment: Growth inhibition of human PC3 cells after 48 hrs by sulforhodamine B assay; format: functional; details: PC-3, 48 h
786-0 = experiment: Growth inhibition of human 786-0 cells after 48 hrs by sulforhodamine B assay; format: functional; details: 786-0, 48 h
IGROV-1 = experiment: Growth inhibition of human IGROV1 cells after 48 hrs by sulforhodamine B assay; format: functional; details: IGROV-1, 48 h

## C[C@H]1[C@@H](O[C@@H](C)CO[C@H]2O[C@@H]3O[C@@]4(C)CC[C@H]5[C@H](C)CC[C@@H]([C@H]2C)[C@@]35OO4)O[C@@H]2O[C@@]3(C)CC[C@H]4[C@H](C)CC[C@@H]1[C@@]24OO3
NCI-H23
  GI50: 37 nM
K562
  GI50: < 10 nM
SK-MEL-2
  GI50: 62 nM
MDA-MB-231
  GI50: 80 nM
SW-620
  GI50: < 10 nM
MOLT-4
  GI50: < 10 nM
HCT-15
  GI50: < 10 nM
NCI-H226
  GI50: 226 nM
SK-MEL-5
  GI50: 29 nM
SK-OV-3
  GI50: 23600 nM
A498
  GI50: 409 nM
[1]
  GI50: 21 nM
CCRF-CEM
  GI50: 18 nM
SN12C
  GI50: 25 nM
OVCAR-3
  GI50: 46 nM
SNB-75
  GI50: 332 nM
SF-295
  GI50: 92 nM
UACC-62
  GI50: 16 nM
U-251
  GI50: < 10 nM
KM12
  GI50: < 10 nM
UO-31
  GI50: 31 nM
TK-10
  GI50: 17900 nM
SF-268
  GI50: 65 nM
SK-MEL-28
  GI50: 16300 nM
[2]
  selectivity ratio: > 21
MDA-N
  GI50: 42 nM
[3]
  GI50: < 10 nM
T47D
  GI50: < 10 nM
HL-60
  GI50: < 10 nM
BT-549
  GI50: 58 nM
HOP-92
  GI50: 63 nM
HCC 2998
  GI50: 49 nM
OVCAR-8
  GI50: 34 nM
MCF7
  GI50: < 10 nM
[4]
  CC50 at 48 h: > 78000 nM
M14
  GI50: 18 nM
[5]
  selectivity ratio: > 15
UACC-257
  GI50: 21 nM
Plasmodium falciparum [6]
  IC50: 3800 nM
Malme-3M
  GI50: 37 nM
OVCAR-4
  GI50: 72 nM
LOX IMVI
  GI50: 179 nM
MDA-MB-435
  GI50: 27 nM
NCI-H322M
  GI50: 88 nM
OVCAR-5
  GI50: 27 nM
EKVX
  GI50: 37 nM
NCI-H522
  GI50: 54 nM
CAKI-1
  GI50: 376 nM
NCI-H460
  GI50: 27 nM
A549
  GI50: 18 nM
SF-539
  GI50: 39 nM
NCI/ADR-RES
  GI50: 264 nM
SNB-19
  GI50: 104 nM
HT-29
  GI50: 12 nM
COLO 205
  GI50: 12 nM
ACHN
  GI50: 33 nM
Plasmodium falciparum [7]
  IC50: 5100 nM
RXF 393
  GI50: < 10 nM
HOP-62
  GI50: 15900 nM
HCT-116
  GI50: < 10 nM
PC-3
  GI50: 9 nM
786-0
  GI50: 48 nM
IGROV-1
  GI50: 130 nM
